From patent US8481540B2, “Inhibitors of bruton's tyrosine kinase” (Hoffmann-La Roche Inc., priority 2010, dated 2013)

How the values were obtained:
[1] = system: B cells in human blood; test: Inhibition of B cell activation in whole blood measured by CD69 expression; format: cell-based; details: CD69-positive, CD20-positive cells after anti-IgM stimulation, human whole blood, 20 hours, read-out: Human Whole Blood
Summary of the method: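 Heparinised human whole blood was preincubated with compound (nine-point, three-fold dilutions) for 30 min at 37 °C. It was then stimulated with 50 μg/ml goat F(ab′)2 anti-human IgM for 20 hours. CD20/CD69 staining, red-cell lysis and flow cytometry gave percent CD69-positive cells, from which IC50 values were calculated.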

Row | SMILES | IC50 [1] | melting point
1 | CN1CCC(c2ccc(Nc3cc(-c4cccc(-n5ncc6cc(C(C)(C)C)cc(F)c6c5=O)c4CO)nn(C)c3=O)nn2)CC1 [I-40, 6-tert-Butyl-8-fluoro-2-(2-hydroxymethyl-3-{1-methyl-5-[6-(1-methyl-piperidin-4-yl)-pyridazin-3-ylamino]-6-oxo-1,6-dihydro-pyridazin-3-yl}-phenyl)-2H-phthalazin-1-one] | 44 nM | 260 to 265 °C
2 | COCCNCc1ccc(Nc2cc(-c3cccc(-n4ncc5cc(C(C)(C)C)cc(F)c5c4=O)c3CO)nn(C)c2=O)nc1 [I-42, 6-tert-Butyl-8-fluoro-2-[2-hydroxymethyl-3-(5-{5-[(2-methoxy-ethylamino)-methyl]-pyridin-2-ylamino}-1-methyl-6-oxo-1,6-dihydro-pyridazin-3-yl)-phenyl]-2H-phthalazin-1-one] | 47 nM | 108 to 110 °C
3 | CN1CCn2nc(Nc3cc(-c4cccc(-n5ncc6cc(C(C)(C)C)cc(F)c6c5=O)c4CO)nn(C)c3=O)cc2C1 [I-59] | 5 nM | 188 to 193 °C
4 | Cn1nc(-c2cccc(-n3ncc4cc(C(C)(C)C)cc(F)c4c3=O)c2CO)cc(Nc2cc3n(n2)CCN(C2COC2)C3)c1=O [I-60] | 4 nM | 180 to 185 °C
5 | Cn1nc(-c2cccc(-n3ncc4cc(C(C)(C)C)cc(F)c4c3=O)c2CO)cc(Nc2ccn(C[C@@H](O)CO)n2)c1=O [I-68, 6-tert-Butyl-2-(3-{5-[1-((R)-2,3-dihydroxy-propyl)-1H-pyrazol-3-ylamino]-1-methyl-6-oxo-1,6-dihydro-pyridazin-3-yl}-2-hydroxymethyl-phenyl)-8-fluoro-2H-phthalazin-1-one] | 61 nM | 245 to 250 °C
6 | CCN1CCN(c2ccc(Nc3cc(-c4cccc(-n5ncc6cc(C(C)(C)C)cc(F)c6c5=O)c4CO)nn(C)c3=O)nc2)CC1 [I-69, 6-tert-Butyl-2-(3-{5-[5-(4-ethyl-piperazin-1-yl)-pyridin-2-ylamino]-1-methyl-6-oxo-1,6-dihydro-pyridazin-3-yl}-2-hydroxymethyl-phenyl)-8-fluoro-2H-phthalazin-1-one] | 18 nM | 245 to 247 °C
7 | Cn1nc(-c2cccc(-n3ncc4cc(C(C)(C)C)cc(F)c4c3=O)c2CO)cc(Nc2ccn(CC(C)(C)O)n2)c1=O [I-70, 6-tert-Butyl-8-fluoro-2-(2-hydroxymethyl-3-{5-[1-(2-hydroxy-2-methyl-propyl)-1H-pyrazol-3-ylamino]-1-methyl-6-oxo-1,6-dihydro-pyridazin-3-yl}-phenyl)-2H-phthalazin-1-one] | 117 nM | 165 to 170 °C

Results, then the molecule that gave them:

Row | IC50 [1] | melting point | SMILES
8 | 21 nM | 140 to 145 °C | CN(C)CC(C)(C)Oc1ccc(Nc2cc(-c3cccc(-n4ncc5cc(C(C)(C)C)cc(F)c5c4=O)c3CO)nn(C)c2=O)nn1 [I-39, 6-tert-Butyl-2-(3-{5-[6-(2-dimethylamino-1,1-dimethyl-ethoxy)-pyridazin-3-ylamino]-1-methyl-6-oxo-1,6-dihydro-pyridazin-3-yl}-2-hydroxymethyl-phenyl)-8-fluoro-2H-phthalazin-1-one]
9 | 41 nM | 183 to 186 °C | CN1C[C@@H]2C[C@H]1CN2Cc1ccc(Nc2cc(-c3cccc(-n4ncc5cc(C(C)(C)C)cc(F)c5c4=O)c3CO)nn(C)c2=O)nc1 [I-43, 6-tert-Butyl-8-fluoro-2-(2-hydroxymethyl-3-{1-methyl-5-[5-((1S,4S)-5-methyl-2,5-diaza-bicyclo[2.2.1]hept-2-ylmethyl)-pyridin-2-ylamino]-6-oxo-1,6-dihydro-pyridazin-3-yl}-phenyl)-2H-phthalazin-1-one]
10 | 2 nM | 214 to 217 °C | Cn1nc(Nc2cc(-c3cccc(-n4ncc5cc(C(C)(C)C)cc(F)c5c4=O)c3CO)nn(C)c2=O)cc1CN1CCC1 [I-58]
11 | 242 nM | > 250 °C | Cn1nc(-c2cccc(-n3ncc4cc(C(C)(C)C)cc(F)c4c3=O)c2CO)cc(Nc2ccc(CN3C[C@@H]4C[C@H]3CN4)cn2)c1=O [I-84, 6-tert-Butyl-2-[3-(5-{5-[(1S,4S)-1-(2,5-diaza-bicyclo[2.2.1]hept-2-yl)methyl]-pyridin-2-ylamino}-1-methyl-6-oxo-1,6-dihydro-pyridazin-3-yl)-2-hydroxymethyl-phenyl]-8-fluoro-2H-phthalazin-1-one]
